Experimental findings from patent US12661355B2, “Compounds and methods for inducing UCP1 expression” (The Regents of the University of California, priority 2020, dated 2026) are described below.

Assay [1] addresses T1, AKAP1 and the PKA subunits (Mus musculus, UniProt O08715).
T1 construct: Immortalized brown adipocyte cells were differentiated for 10 days and treated with 10 μM AST070 or Z160 for 7 h; endogenous in cells; host or cells: immortalized mouse brown adipocytes
Description: Co-immunoprecipitation of PKA C-α and PKA RII-β with AKAP1. The following applies: brown adipocytes, 10 μM for 7 h. The class given is cell-based. As for the experimental part: Immortalized brown adipocyte cells were differentiated for 10 days and treated with 10 μM AST070 or Z160 for 7 h. Cells were lysed in 150 mM NaCl, 50 mM Tris pH 7.5, 1% Nonidet P40, 0.5% Na-deoxycholate containing protease and phosphatase inhibitors. Cell lysates were incubated overnight at 4° C. with 2 μl of anti-AKAP1 antibody. Twenty microliter of Protein A/G PLUS agarose beads (Santa Cruz Biotechnologies) were added for 2 h at 4° C. After a initial wash (500 mM NaCl, 50 mM Tris pH 7.5, 0.1% Nonidet P40, 0.05% Na-deoxycholate) and a final wash (10 mM Tris pH 7.5, 0.1% Nonidet P40, 0.05% Na-deoxycholate), proteins were eluted from the beads with 1× loading buffer and 2% β-mercaptoethanol, boiled for 10 min and analyzed by Western blot. To avoid detecting the IgG heavy chain, TidyBlot Western Blot reagent:HRP (Bio-Rad) at 1:100 was used as secondary antibody to reveal the PKA subunits from the co-immunoprecipitation blot.
AKAP1 is known to localize PKA to the surface of mitochondria and to relay cAMP signaling for mitochondrial functions. Inspired by this information, an inquiry as to whether treatment with the reported compounds could alter the binding of AKAP1 to mitochondria was undertaken. Analysis began by treating brown adipocytes with Z160 and isolated mitochondria at different times. […]

Assay [2] deals with T2, AKAP1 (Mus musculus, UniProt O08715).
T2 construct: from tissue; host or cells: mouse brown adipose tissue (BAT) lysate; also mouse brown adipocyte extracts
T2 sequence (O08715 30-857): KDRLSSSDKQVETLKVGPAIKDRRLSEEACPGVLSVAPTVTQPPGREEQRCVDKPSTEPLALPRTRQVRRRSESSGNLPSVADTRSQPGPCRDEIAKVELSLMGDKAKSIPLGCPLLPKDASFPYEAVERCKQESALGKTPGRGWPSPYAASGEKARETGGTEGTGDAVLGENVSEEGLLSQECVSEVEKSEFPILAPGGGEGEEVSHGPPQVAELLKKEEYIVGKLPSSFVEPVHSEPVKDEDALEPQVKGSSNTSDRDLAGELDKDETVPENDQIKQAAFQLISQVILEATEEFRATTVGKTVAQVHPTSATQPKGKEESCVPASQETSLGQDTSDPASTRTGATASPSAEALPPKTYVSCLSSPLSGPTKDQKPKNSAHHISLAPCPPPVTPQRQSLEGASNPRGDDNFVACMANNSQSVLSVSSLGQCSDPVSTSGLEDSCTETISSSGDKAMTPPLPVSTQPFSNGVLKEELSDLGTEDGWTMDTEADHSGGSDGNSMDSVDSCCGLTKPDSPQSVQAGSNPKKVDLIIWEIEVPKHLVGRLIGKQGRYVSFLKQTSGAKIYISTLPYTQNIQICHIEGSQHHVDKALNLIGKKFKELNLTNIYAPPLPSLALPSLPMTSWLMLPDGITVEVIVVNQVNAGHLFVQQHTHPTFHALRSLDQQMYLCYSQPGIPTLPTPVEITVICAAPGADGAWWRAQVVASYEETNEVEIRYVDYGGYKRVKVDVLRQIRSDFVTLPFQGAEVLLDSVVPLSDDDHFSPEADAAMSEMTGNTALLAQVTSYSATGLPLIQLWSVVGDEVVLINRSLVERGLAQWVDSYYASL
Put plainly: Drug Affinity Responsive Target Stability (DARTS) in BAT or brown adipocyte extracts, AKAP1. The class given is binding. The following applies: 1 h; for effect on AKAP1 (pronase susceptibility): mouse brown adipocyte extracts, 20 μM (CL316,243 20 nM). On the procedure:
[…] assays were performed according to known methods. Briefly, BAT or cells within a 10 cm dish were lysed with 600 μl M-PER buffer containing protease and phosphatase inhibitors. Debris was pelleted by centrifugation at 18,000 g for 10 min at 4° C., and the lysates were harvested and supplemented with TNC buffer (50 mM Tris-HCl, 50 mM NaCl, 10 mM CaCl2). The lysates were split into two tubes and treated with either vehicle or 20 μM Z160 for 1 h at room temperature. For experiment with BAT, 100 μg of lysate was incubated with different Z160 concentrations. Different concentrations of pronase (from 1:100 to 1:10,000 dilution from a 1.25 mg/ml pronase stock) were incubated with the samples for 30 min at room temperature and the reaction was stopped with SDS loading buffer followed immediately by heating at 70° C. for 10 min. Protein lysates were separated by SDS-PAGE and transferred to a nitrocellulose membrane. After blocking in 5% milk, 0.1% Tween-20 in Tris-buffered saline (TBS), primary antibody was incubated overnight at 4° C. in 5% bovine serum albumin and 0.1% Tween-20 in TBS. Primary antibodies against AKAP1 (5203, Cell Signaling), AKAP13 (39715, One World Lab), GAPDH (GTX100118, Genetex), OPA1 (39557, One World Lab), PKA C-α (4782, Cell Signaling), PKA RII-β (ab75993, Abcam), were used at 1:2000. A goat anti-rabbit secondary antibody (sc-2030, Santa Cruz Biotechnology, Inc) was used at a 1:10,000 dilution for 1 h at room temperature in 5% milk and 0.1% Tween-20 in TBS.
The PKA tetramer consists of two catalytic and two regulatory subunits. In the mouse, these are catalytic subunits C-α and C-β, and regulatory subunits RI and RII, each with α and β isoforms (RI-α, RI-β, RII-α, RII-β). PKA is also bound to a family of anchoring proteins, A-kinase anchoring proteins (AKAPs), which allow the compartmentalization of cAMP signaling. To investigate whether Z160 binds PKA complex proteins, two techniques were applied both of which rely on ligand-induced alterations in protein stability: Cellular Thermal Shift Assay (CETSA) and Drug Affinity Responsive Target Stability (DARTS). CETSA is based on the principle that ligand binding will change the temperature at which a protein starts to unfold and aggregate, while DARTS relies on the protection of a protein from proteolysis upon specific binding to a small molecule.
To provide further evidence for an interaction between Z160 and AKAP1, DARTS assays were employed. Lysates from brown fat were treated with different Z160 concentrations for 1 h followed by pronase digestion and immunoblotting. […] The effect of Z160 on AKAP1 was confirmed using mouse brown adipocyte extracts (FIG. 15A).

Take `O=C(CSc1nc2ccccc2c(=O)[nH]1)Nc1ccc2c(c1)OCCO2` [AST070, N-(2,3-dihydro-1,4-benzodioxin-6-yl)-2-[(4-oxo-3,4-dihydroquinazolin-2-yl)sulfanyl]acetamide]: the “signal for PKA subunit precipitation by AKAP1” value in assay [1] was “slightly enhanced”. Also, the “effect on AKAP1 (pronase susceptibility)” value in assay [2] is on record as “effect of AST070 or Z160 on AKAP1”.

As for `COc1ccc(NC(=O)CSc2nc3ccccc3c(=O)[nH]2)c(OC)c1` [Z160], the “signal for PKA subunit precipitation by AKAP1” value in assay [1] is given as “slightly enhanced”. Moreover, the “pronase susceptibility of AKAP1” value in assay [2] (brown fat lysates, pronase 1:4000) is listed as “altered pronase susceptibility”. Also, the “effect on AKAP1 (pronase susceptibility)” value in assay [2] is “confirmed”.
